# Data: patent US20090131422A1, “Salts of an IKK inhibitor” (Millennium Pharmaceuticals, Inc., priority 2007, published 2009)
# Structures can show the parent of a compound that is named as a salt.
# Tests used:
# [1] = Gravimetric vapor sorption (GVS); format: physicochemical; settings: 25° C.
# Experimental: Gravimetric Vapor Sorption (GVS): Gravimetric vapor sorption (GVS) data are collected using either i) a SGA-100 Water Vapor Sorption Analyzer from VTI Corporation. Sample sizes are typically 5-10 mg. A moisture adsorption/desorption isotherm is recorded by subjecting samples to a series of relative humidity (RH) steps at a constant temperature of 25° C.; or ii) a Hiden IGASorp moisture sorption analyser running CFRSorp software, IGA Systems Software V3.00.23 and IGASorp Controller Version 1.10. Sample sizes are typically 10 mg. A moisture adsorption/desorption isotherm iserformed in the following way: Samples are loaded/unloaded at typical room humidity and temperature (40% RH, 25° C.) and analysed afterwards by XRPD. The isotherm run is two complete cycles. Each cycle begins at 40% RH and using 10% RH intervals goes to 90% RH then Dry then 40% RH.
# physchem = settings: water
# Experimental: Solubility: The water solubility of the Tartrate and Mono-HCl Salt was measured at ambient temperature.
smiles,measurement,setting,value
"C[C@@H]1CN(C(=O)CN2CC(C)(C)OC[C@H]2C(=O)Nc2cc(Cl)cc3c2[nH]c2cnccc23)C[C@H](C)O1 [Malonate Salt, (S)—N-(6-chloro-9H-pyrido[3,4-b]indol-8-yl)-4-(2-((2S,6R)-2,6-dimethylmorpholino)-2-oxoethyl)-6,6-dimethylmorpholine-3-carboxamide malonate]",moisture uptake from 40-90% RH,[1]; 40-90% RH,1.5 wt %
"C[C@@H]1CN(C(=O)CN2CC(C)(C)OC[C@H]2C(=O)Nc2cc(Cl)cc3c2[nH]c2cnccc23)C[C@H](C)O1 [Mono-Hydrochloride Salt, (S)—N-(6-chloro-9H-pyrido[3,4-b]indol-8-yl)-4-(2-((2S,6R)-2,6-dimethylmorpholino)-2-oxoethyl)-6,6-dimethylmorpholine-3-carboxamide mono-hydrochloride]",moisture uptake at 70% RH,[1]; mono-hydrochloride,0.23%
same,moisture uptake at 90% RH,[1]; mono-hydrochloride,1.7%
"C[C@@H]1CN(C(=O)CN2CC(C)(C)OC[C@H]2C(=O)Nc2cc(Cl)cc3c2[nH]c2cnccc23)C[C@H](C)O1 [free base, (S)—N-(6-chloro-9H-pyrido[3,4-b]indol-8-yl)-4-(2-((2S,6R)-2,6-dimethylmorpholino)-2-oxoethyl)-6,6-dimethylmorpholine-3-carboxamide]",solubility,physchem,~10 µg/mL
"C[C@@H]1CN(C(=O)CN2CC(C)(C)OC[C@H]2C(=O)Nc2cc(Cl)cc3c2[nH]c2cnccc23)C[C@H](C)O1 [Tartrate Salt, (S)—N-(6-chloro-9H-pyrido[3,4-b]indol-8-yl)-4-(2-((2S,6R)-2,6-dimethylmorpholino)-2-oxoethyl)-6,6-dimethylmorpholine-3-carboxamide hemi-L-tartrate hydrate]",moisture uptake at 70% RH,[1],1.3%
same,moisture uptake at 90% RH,[1],2.4%
same,hygroscopicity,[1]; vapor sorption profile,relatively non-hygroscopic
